# Laboratory results: US12582720B2, “Compound for preventing or treating lipid metabolism-related diseases” (Fudan University, priority 2020, dated 2026)
# Assays:
# [1] = target: T1, LC3B (Homo sapiens, UniProt Q9GZQ8); test: OI-RD detection of affinity activity with LC3B; type: binding; design: Gly-Gly (two glycines added in place of the start Met); His8 (followed by TEV site) (N, cleaved yes); GST (from the pGEX-6P1 backbone) (N, cleaved yes); made in house; host or cells: Escherichia coli BL21(DE3)pLysS; conditions: LC3B 238 nM, read-out: Kd (nM), equilibrium dissociation constant of affinity reaction between the compound and LC3B detected by OI-RD
# Description: Each compound was dot printed 3 copies. The compounds that not fixed on surface of the chips were washed, and the chips were sealed and cleaned. OI-RD microscope was used to scan the images. […] The chips were washed and scanned. OI-RD images before, during and after incubation with target protein were obtained. The signal change in real-time dynamic change image was analyzed, and the signal was collected once per 10 millisecond.
# [2] = tested on: lipid droplets in wild type MEF cells; test: Reduction of OA-induced lipid droplets in wild type MEF cells (BODIPY 493/503 staining); type: cell-based, mouse; conditions: MEF, unconjugated compound 5 μM
# Description: (5) OA-BSA stock solution was prepared into OA-BSA working solution (50× final concentration, 200 μM), and 40 μl of OA-BSA working solution was added to each well to induce lipid droplets. For the non-OA induction group, 40 μl of 10% BSA solution was added to the control well, and the amount of BSA was the same as that of the experimental group.
# Compounds were formulated into DMSO stock solutions. Stock compounds were diluted with DMSO into the indicated concentrations of working solutions prior to use in the treatment of cells. After induction of the lipid droplets with OA for the indicated time, the test compounds were added to the cells respectively. Control wells were replaced with the equal volume of DMSO. Unless otherwise stated, the compounds were diluted into 10× solutions using the culture medium and added to the culture medium for 24 hours of incubation. Cells were treated with compounds in a 37° C. incubator with 5% CO2.
# (3) The original medium in the multi-well plates was removed, washed and the cells was fixed, 1 ml of the BODIPY solution prepared in (1) was added to each well, and stained for 15 minutes. The staining solution was aspirated and washed with 1×PBS.
# (5) The coverslips laid in the multi-well plates were removed, and imaged with the Zeiss 880 confocal microscope after mounted, and analyzed the size and number of lipid droplets with ImageJ.
# Wild type MEF cells were cultured in a DMEM culture medium containing 10% FBS. Cells were plated according to the method as described above (12 well plate was plated with aseptic treated slides). When cells grew to a confluence of 60-70%, lipid droplets were induced with OA for 30 h according to the method as described above.
# At the time point of 6th hour after initiation of induction, the cells were treated (treated for 24 hours) with Compound 1A or Compound 2A (compound concentrations were 50 μM, 15.8 μM, 5 μM, 1.58 μM, 0.5 μM, 0.158 μM) according to the method as described above.
# [3] = tested on: lipid droplets in human normal liver cell line QSG7701; test: Endogenous lipid droplets in human normal liver cell line QSG7701; type: cell-based; conditions: QSG7701, no induction, 5 μM, 24 h
# Description: 10% FBS+90% RPMI 1640 culture medium was used for cultivation, cell incubator culture condition of 37° C. and 5% CO2 was used. Cells were plated as 50 thousands/well (12 well plate was plated with aseptic treated slides). When cells grew to a confluence of 80-90%, the compound (Compound 1A or Compound 2A, at a concentration of 5 μM) was added for treatment, and LC3 binding Compound A1, A5, lipid droplet probe Sudan IV as well as DMSO acted as a control. […]. In the compounds of present disclosure, LC3 binding moiety was covalently linked with lipid droplet binding moiety, and thus could achieve the effect of reducing liver cell endogenous lipid droplet.
# [4] = target: T1, LC3B; test: MST detection of affinity activity with LC3B; type: binding; design: His8 (with TEV site) (N); made in house; host or cells: Escherichia coli BL21(DE3)pLysS; conditions: MST; read-out: Kd, equilibrium dissociation constant between the LC3 binding compound and LC3B
# Outline: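 Microscale thermophoresis uses recombinant GST-LC3B labelled with RED-NHS fluorophore at 500 nM. Buffer is 20 mM HEPES pH 7.4 with 150 mM NaCl. Readings are taken at 40% infrared laser power and 20% LED power.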
smiles,measurement,setting,value
"O=C1Nc2ccc(I)cc2C1=Cc1cc(Br)c(O)c(Br)c1 [Compound A1, 3-(3,5-dibromo-4-hydroxylbenzylidene)-5-iodoindolin-2-one, reference compound]",Kd,[1],468 nM
same,lipid droplets (number and size),[2],did not significantly decrease or become smaller
same,endogenous lipid droplets (amount),[3],no significant effect
same,Kd,[4],4760 nM
